One experiment concerns the target T1, Autotaxin (Homo sapiens, UniProt Q13822). Nature of the experiment: Inhibition of ATX in human plasma using LPC as substrate pretreated for 15 mins followed by substrate addition measured after 3 hrs by LC-MS/MS analysis.
Consider `CS(=O)(=O)Nc1ccc(-c2csc(C(=O)NC3CCN(C(=O)OCc4cc(Cl)cc(Cl)c4)CC3)n2)cc1`, for which the IC50 worked out at 735 nM. On the same count and under the same terms, next, `O=C(NC1CCN(C(=O)OCc2cc(Cl)cc(Cl)c2)CC1)c1nc(-c2ccc(CP(=O)(O)O)cc2)cs1`: 15 nM.

The next experiment deals with T1, Autotaxin. Nature of the experiment: Inhibition of human ATX using FS-3 as substrate measured every 5 mins for 30 mins by fluorescence assay.
The compound `CN(c1ccc(S(N)(=O)=O)cc1)c1nc(-c2ccc(O)c(CO)c2)cs1` showed an IC50 of 5820 nM. `CS(=O)(=O)Nc1ccc(-c2csc(C(=O)NC3CCN(C(=O)OCc4cc(Cl)cc(Cl)c4)CC3)n2)cc1` returned a 50% inhibitory concentration (IC50) of 2.99 nM. For `O=C(OCc1ccccc1)N1CCC(Nc2nc(-c3ccc(O)c(O)c3)cs2)C1` (configuration not stated), the IC50 amounted to 1230 nM. `O=S(=O)(Cc1cccc(Nc2nc(-c3ccc(O)c(O)c3)cs2)c1)NCc1ccccc1` displayed an IC50 of 11600 nM.

Regarding `NS(=O)(=O)c1cc(-c2csc(C(=O)NC3CCN(C(=O)OCc4cc(Cl)cc(Cl)c4)CC3)n2)ccc1Cl`, inhibition was half-maximal at 4.47 nM (IC50). Still for that read-out and setting: to `NS(=O)(=O)c1cc(-c2csc(C(=O)NCc3ccc(Cl)cc3)n2)ccc1Cl` belongs 2110 nM; to `O=C(OCc1ccccc1)N1CCC(Nc2nc(-c3ccc(CP(=O)(O)O)cc3)cs2)CC1`, 75.9 nM.

With `CN(c1ccc2c(c1)CS(=O)(=O)N2)c1nc(-c2ccc(O)c(C(=O)O)c2)cs1`, the IC50 was > 10000 nM. Regarding `NS(=O)(=O)c1cc(-c2csc(C(=O)Nc3cccc(C(=O)O)c3)n2)ccc1Cl`, it took 10500 nM to reach half-maximal inhibition (IC50). `O=C(O)c1cc(-c2csc(NC3CCN(C(=O)OCc4ccccc4)C3)n2)ccc1O` (configuration not stated) registered a concentration for half-maximal inhibition (IC50) of 10900 nM. On the same count and under the same terms, next, `O=C(NC1CCN(C(=O)OCc2ccccc2)CC1)c1nc(-c2ccc(CP(=O)(O)O)cc2)cs1`: 13.7 nM; `O=C(NC1CCN(C(=O)OCc2cc(Cl)cc(Cl)c2)CC1)c1nc(-c2ccc(Cl)cc2)cs1`: 63.3 nM; `NS(=O)(=O)c1cc(-c2csc(NC3CCN(C(=O)OCc4ccccc4)C3)n2)ccc1Cl` (configuration not stated): 1340 nM. The same measure, in the same setting: to `O=C(NC1CCN(C(=O)OCc2cc(Cl)cc(Cl)c2)CC1)c1nc(-c2ccc(CP(=O)(O)O)cc2)cs1` belongs 2.19 nM; to `CS(=O)(=O)Nc1ccc(-c2csc(N(Cc3ccccn3)c3ccc4nn[nH]c4c3)n2)cc1`, 2570 nM. The compound `NS(=O)(=O)c1cc(-c2csc(C(=O)NC3CCN(C(=O)OCc4ccccc4)CC3)n2)ccc1Cl` yielded an IC50 of 505 nM. On the same count and under the same terms, to `NS(=O)(=O)c1cc(-c2csc(NC3CCN(C(=O)OCc4ccccc4)CC3)n2)ccc1Cl` belongs 1300 nM; to `COc1ccc(-c2csc(C(=O)NC3CCN(C(=O)OCc4cc(Cl)cc(Cl)c4)CC3)n2)cc1`, 30.3 nM.

On to `O=C(OCc1ccccc1)N1CCC(Nc2nc(-c3ccc(CP(=O)(O)O)cc3)cs2)C1` (configuration not stated), for which the half-maximal inhibitory concentration (IC50) worked out at 10.3 nM.

For `O=C(Nc1cccc(Nc2nc(-c3ccc(O)c(O)c3)cs2)c1)OCc1ccccc1`, the IC50 came to 9430 nM. The same measure, in the same setting: next, `CN(c1ccc(S(N)(=O)=O)cc1)c1nc(-c2ccc(O)c(C(N)=O)c2)cs1`: 6570 nM; `NC(=O)c1cc(-c2csc(NC3CCN(C(=O)OCc4ccccc4)C3)n2)ccc1O` (configuration not stated): 4470 nM; `CN(c1ccc(S(N)(=O)=O)cc1)c1nc(-c2ccc(O)c(C(=O)O)c2)cs1`: 10600 nM. Same read-out and setting: to `CS(=O)(=O)Nc1cccc(-c2csc(NC3CCN(C(=O)OCc4cc(Cl)cc(Cl)c4)CC3)n2)c1` belongs > 100 nM; to `O=C(Cc1cccc(Nc2nc(-c3ccc(O)c(O)c3)cs2)c1)NCc1ccccc1`, 8060 nM.

Source of the values: ChEMBL document CHEMBL4052794, “Design, synthesis, docking and biological evaluation of 4-phenyl-thiazole derivatives as autotaxin (ATX) inhibitors” (Bioorg Med Chem Lett, 2017).
